Consider 3 compounds from patent US8008502B2, “Thiazoline acid derivatives” (University of Florida Research Foundation, Inc., priority 1998, dated 2011).

The subject of assay [1] is animal models. Particulars: literature; cited from earlier work.
In assay [2] the test system is non-iron-overloaded, bile duct-cannulated rat. Description: Iron excretion in the non-iron-overloaded, bile duct-cannulated rat. The assay is classed as in vivo. As to conditions: 150 μmol/kg p.o., solution in 40% Cremophor-H2O, rats fasted for 24 hours. The protocol: Preparation of Drugs. Drug solutions were prepared in 60% water, 40% Cremophor RH-40.
Initial testing of 1 was performed in the non-iron-overloaded, bile duct-cannulated rat [J. Med. Chem., Vol. 34, Bergeron et al, “Synthesis and Biological Evaluation of Hydroxamate-Based Iron Chelators,” pages 3182-3187 (1991)]. The drug was prepared as a solution in 40% Cremophor-H2O and administered at a dose of 150 μmol/kg p.o. The rats were fasted for 24 hours before dosing. The efficiency of iron excretion induced by 1 was 2.4±0.92%.

The test system of assay [3] is iron-overloaded primate model. Particulars: po, 150 umol/kg, 24 h.
Description: The drug was prepared as a solution in 40% Cremophor-H2O and administered at a dose of 1.50 μmol/kg p.o. The monkeys were fasted for 24 hours before dosing.

As for `CC(=O)N(O)CCC[C@@H]1NC(=O)[C@H](CCCN(O)C(C)=O)NC1=O` [rhodotorulic acid], the clearing iron result in assay [1] is listed as “reasonably active”. Consider `O=C(N[C@H]1COC(=O)[C@@H](NC(=O)c2cccc(O)c2O)COC(=O)[C@@H](NC(=O)c2cccc(O)c2O)COC1=O)c1cccc(O)c1O` [enterobactin], for which the clearing iron entry in assay [1] is “only marginally effective”. For `O=C(O)[C@H]1CSC(c2ccc(O)cc2O)=N1` [Compound 1, 4,5-dihydro-2-(2,4-dihydroxyphenyl)-thiazole-4(S)-carboxylic acid], the “efficiency of iron excretion” value in assay [2] is reported as 2.4±0.92%. In addition, in assay [3], the “efficiency (iron excretion)” value is 4.2±1.4%.
